Source: US6426355B1, “Heterocyclic carboxamide-containing thiourea inhibitors of herpes viruses containing phenylenediamine group” (American Home Products, priority 1998, dated 2002)
≈ marks a conversion by molar mass, not a printed value.

Columns and labels:
[1] = tested on: HCMV recombinant mutant virus (RV145); assay: HCMV microtiter plate assay (beta-glucuronidase reporter); format: cell-based, Human Cytomegalovirus; conditions: for IC50: Human betaherpesvirus 5, Fibroblast, read-out: IC50 (ug/ml) HCMV; for IC50 (ug/ml) HCMV: HCMV in human foreskin fibroblasts
Procedure, shortened: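 Human foreskin fibroblasts were infected with RV145 in the presence of inhibitor. β-glucuronidase under a viral promoter served as the replication marker. At 96 h post-infection, lysates in pH 7.0 phosphate with Triton X-100/sarkosyl were assayed colorimetrically or fluorometrically, and IC50 was estimated from varying inhibitor amounts.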

HSV-1 = assay: HSV Antiviral (ELISA) assay; format: cell-based; conditions: for IC50: Human alphaherpesvirus 1, HSV-1 in Vero cells, read-out: IC50 (ug/ml) HSV; for IC50 (ug/ml) HSV: HSV-1 in Vero cells
Procedure, shortened: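 Vero cells in DMEM/2% FBS pretreated with compound 30 min before HSV-1 infection (MOI 0.006), then ~24 h at 37 °C. Viral gD detected by ELISA with β-galactosidase secondary and 4-methylumbelliferyl-galactoside (ex 365/em 450 nm); IC50 from fluorescence versus untreated infected cells.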

VZV strain Ellen = assay: VZV Antiviral (ELISA) assay; format: cell-based; conditions: for IC50: Human alphaherpesvirus 3, VZV strain Ellen in HFF cells, read-out: IC50 (ug/ml) VZV; for IC50 (ug/ml) VZV / % inhibition 10 ug/ml VZV: VZV strain Ellen in HFF cells; for % inhibition 10 ug/ml VZV: at 10 ug/ml; for inhibition at 10 µg/mL: Human alphaherpesvirus 3, read-out: % inhibition 10 ug/ml VZV, at 10 ug/ml, VZV strain Ellen in HFF cells
Procedure, shortened: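 First, fibroblasts are infected at multiplicity below 0.1 and kept overnight. The harvested cell mixture then goes onto compound-containing wells for three days at 37° C. Finally, cells are fixed and viral gpII is measured by fluorogenic ELISA.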

SMILES | IC50 [1] [µg/mL] | IC50 (HSV-1) [µg/mL] | IC50 (VZV strain Ellen) [µg/mL] | IC50 (ug/ml) HCMV [1] [µg/mL] | IC50 (ug/ml) HSV (HSV-1) [µg/mL] | IC50 (ug/ml) VZV (VZV strain Ellen) [µg/mL] | % inhibition 10 ug/ml VZV (VZV strain Ellen) [%] | inhibition at 10 µg/mL (VZV strain Ellen) [%]
CC(NC(=S)Nc1ccc(NC(=O)c2cnccn2)cc1)c1ccc(F)cc1 (centres unmarked) [Example 1127, Pyrazine-2-carboxylic acid (4-{3-[1-(4-fluoro-phenyl)-ethyl]-thioureido}-phenyl)-amide] | 1 (≈ 2.53 µM) | 9.5 (≈ 24 µM) | 3.7 (≈ 9.36 µM) | – | – | – | – | –
O=C(Nc1ccc(NC(=S)Nc2cccc(CO)c2)cc1)c1ccco1 [Example 488] | – | – | – | 1.2 (≈ 3.27 µM) | >10 | >10 | 13 | –
CN(c1ccc(NC(=S)Nc2ccc(NC(=O)c3ccco3)cc2)cc1Cl)C1CCN(Cc2ccccc2)C1 (centres unmarked) [Example 331] | – | – | – | 2 (≈ 3.57 µM) | 1.8 (≈ 3.21 µM) | 5 (≈ 8.93 µM) | 98 | –
O=C(Nc1ccc(NC(=S)Nc2ccc(Cl)c(C(F)(F)F)c2)cc1)c1ccco1 [Example 378] | – | – | – | 0.033 (≈ 0.075 µM) | >10 | >10 | 31 | –
COC(=O)c1cc(NC(=S)Nc2ccc(NC(=O)c3ccco3)cc2)cc(C(=O)OC)c1 [Example 469] | – | – | – | 0.1 (≈ 0.221 µM) | >10 | >10 | 54 | –
O=C(Nc1ccc(NC(=S)Nc2cc(Br)cc(C(F)(F)F)c2)cc1)c1csnn1 [Example 532] | – | – | – | 0.009 (≈ 0.0179 µM) | >10 | 6 (≈ 11.9 µM) | – | –
COc1cc(NC(=S)Nc2ccc(NC(=O)c3csnn3)cc2)cc(OC)c1 [Example 468] | – | – | – | 0.06 (≈ 0.144 µM) | >10 | >10 | 50 | –
Cc1nc(C(=O)Nc2ccc(NC(=S)Nc3cc(C(F)(F)F)cc(C(F)(F)F)c3)cc2)cs1 [Example 1140, 2-Methyl-thiazole-4-carboxylic acid {4-[3-(3,5-bis-trifluoromethyl-phenyl)-thioureido]-phenyl}-amide] | 1.6 (≈ 3.17 µM) | 3.5 (≈ 6.94 µM) | 4 (≈ 7.93 µM) | – | – | – | – | –
CCCCc1nc(C(=O)Nc2ccc(NC(=S)Nc3ccc(Cl)c(Cl)c3)cc2)cs1 [Example 1134, 2-Butyl-thiazole-4-carboxylic acid {4-[3-(3,4-dichloro-phenyl)-thioureido]-phenyl}-amide] | 1 (≈ 2.09 µM) | 2.4 (≈ 5.01 µM) | 1.6 (≈ 3.34 µM) | – | – | – | – | –
O=C(Nc1ccc(NC(=S)Nc2cccc(OC(F)(F)F)c2)cc1)c1ccccc1F [Example 1011, 2-Fluoro-N-{4-[3-(3-trifluoromethoxy-phenyl)-thioureido]-phenyl} -benzamide] | 0.039 (≈ 0.0868 µM) | > 10 | – | – | – | – | – | 20
COc1c(Cl)cc(NC(=S)Nc2ccc(NC(=O)c3csnn3)cc2)cc1Cl [Example 201] | – | – | – | 0.023 (≈ 0.0506 µM) | >10 | 8 (≈ 17.6 µM) | 78 | –
NC(=O)c1cccc(NC(=S)Nc2ccc(NC(=O)c3ccco3)cc2)c1 [Example 1004, Furan-2-carboxylic acid {4-[3-(3-carbamoyl-phenyl)-thioureido]-phenyl} -amide] | 0.5 (≈ 1.31 µM) | > 10 | > 10 | – | – | – | – | 36
O=C(Nc1ccc(NC(=S)NCCc2cccc(Cl)c2)cc1)c1csnn1 [Example 562] | – | – | – | 0.004 (≈ 0.00957 µM) | >10 | 8 (≈ 19.1 µM) | – | –
CCC(C)Cc1cc(NC(=S)Nc2ccc(NC(=O)c3csnn3)cc2)cc(C(F)(F)F)c1 (centres unmarked) [Example 556] | – | – | – | 0.006 (≈ 0.0122 µM) | >10 | >7.5 | – | –
COc1cc(OC)c(NC(=S)Nc2ccc(NC(=O)c3ccc4ccccc4n3)cc2)cc1Cl [Example 159] | – | – | – | >10 | >10 | >10 | 62 | –
COc1cc(OC)c(NC(=S)Nc2ccc(NC(=O)c3ccno3)cc2)cc1Cl [Example 470] | – | – | – | 0.7 (≈ 1.62 µM) | 0.6 (≈ 1.39 µM) | >10 | 17 | –

SMILES | IC50 [1] [µg/mL] | IC50 (HSV-1) [µg/mL] | IC50 (VZV strain Ellen) [µg/mL] | IC50 (ug/ml) HCMV [1] [µg/mL] | IC50 (ug/ml) HSV (HSV-1) [µg/mL] | IC50 (ug/ml) VZV (VZV strain Ellen) [µg/mL] | % inhibition 10 ug/ml VZV (VZV strain Ellen) [%] | inhibition at 10 µg/mL (VZV strain Ellen) [%]
CN1CCC(N(C)c2ccc(NC(=S)Nc3ccc(NC(=O)c4csnn4)cc3)cc2Cl)C1 (centres unmarked) [Example 341] | – | – | – | 0.15 (≈ 0.299 µM) | 2 (≈ 3.98 µM) | >10 | 50 | –
CC(C)c1cccc(NC(=S)Nc2ccc(NC(=O)c3ccco3)cc2)c1 [Example 451] | – | – | – | 0.15 (≈ 0.395 µM) | 8 (≈ 21.1 µM) | >10 | – | –
CSc1ccc(NC(=S)Nc2ccc(NC(=O)c3ccccn3)cc2)cc1Cl [Example 351] | – | – | – | 0.3 (≈ 0.699 µM) | 3 (≈ 6.99 µM) | 3.5 (≈ 8.16 µM) | 90 | –
Cc1nc(C(=O)Nc2ccc(NC(=S)Nc3ccc(Cl)c(Cl)c3)cc2)cs1 [Example 1139, 2-Methyl-thiazole-4-carboxylic acid {4-[3-(3,4-dichloro-phenyl)-thioureido]-phenyl}-amide] | 1.2 (≈ 2.74 µM) | 3.7 (≈ 8.46 µM) | 6 (≈ 13.7 µM) | – | – | – | – | –
Nc1c(Br)cc(NC(=S)Nc2ccc(NC(=O)c3csnn3)cc2)cc1Br [Example 521] | – | – | – | 0.04 (≈ 0.0757 µM) | 10 (≈ 18.9 µM) | 3 (≈ 5.68 µM) | 97 | –
CS(=O)(=O)Nc1ccc(NC(=S)Nc2ccc(NC(=O)c3ccco3)cc2)cc1Cl [Example 371] | – | – | – | >10 | >10 | >10 | 45 | –
CN1CCC(N(C)c2ccc(NC(=S)Nc3ccc(NC(=O)c4ccccn4)cc3)cc2Cl)CC1 [Example 376] | – | – | – | 0.8 (≈ 1.57 µM) | 3 (≈ 5.89 µM) | 7 (≈ 13.8 µM) | 83 | –
O=C(Nc1ccc(NC(=S)NCCOc2ccccc2)cc1)c1csnn1 [Example 627] | – | – | – | 0.014 (≈ 0.035 µM) | 10 (≈ 25 µM) | >10 | – | –
O=C(Nc1ccc(CNC(=S)Nc2ccc(Cl)c(Cl)c2)cc1)c1csnn1 [Example 630] | – | – | – | 0.4 (≈ 0.912 µM) | >10 | 4 (≈ 9.12 µM) | – | –
O=C(Nc1ccc(NC(=S)NCCc2cc(C(F)(F)F)ccc2F)cc1)c1csnn1 [Example 767] | – | – | – | 0.006 (≈ 0.0128 µM) | >10 | 1 (≈ 2.13 µM) | – | –
COc1cc(OC)c(NC(=S)Nc2ccc(NC(=O)c3csnn3)cc2)cc1Cl [Example 173] | – | – | – | 0.08 (≈ 0.178 µM) | >10 | >10 | 31 | –
CN1CCC(N(C)c2ccc(NC(=S)Nc3ccc(NC(=O)c4ccccn4)cc3)cc2Cl)C1 (centres unmarked) [Example 354] | – | – | – | 2 (≈ 4.04 µM) | 0.8 (≈ 1.62 µM) | 7 (≈ 14.1 µM) | 75 | –
COc1cc(OC)c(NC(=S)Nc2ccc(NC(=O)c3ccc(Br)o3)cc2)cc1Cl [Example 168] | – | – | – | 2.5 (≈ 4.89 µM) | 3 (≈ 5.87 µM) | >10 | – | –
CN(C)CC(=O)Nc1ccc(NC(=S)Nc2ccc(NC(=O)c3ccco3)cc2)cc1Cl [Example 361] | – | – | – | 0.25 (≈ 0.53 µM) | 8 (≈ 17 µM) | >10 | 26 | –
O=C(Nc1ccc(CNC(=S)Nc2cc(Cl)cc(Cl)c2)cc1)c1csnn1 [Example 635] | – | – | – | 0.15 (≈ 0.342 µM) | >10 | 4 (≈ 9.12 µM) | – | –
